Data from patent publication US20200171030A1, “DUAL INHIBITORS OF ALK5 AND P38A MAP KINASE” (INTEGRAL BIOSCIENCES PRIVATE LIMITED, priority 2018, published 2020).
Structures can show the parent of a compound that is named as a salt.

What was measured:
TGFBR1 (ALK5) = molecular target: T1, TGFBR1 (ALK5) (Homo sapiens, UniProt P36897); assay: ALK5 kinase assay (LanthaScreen Terbium labeled TR-FRET); assay type: biochemical; settings: Table 5; read-out: ALK5 IC50
T1 sequence (P36897 34-503): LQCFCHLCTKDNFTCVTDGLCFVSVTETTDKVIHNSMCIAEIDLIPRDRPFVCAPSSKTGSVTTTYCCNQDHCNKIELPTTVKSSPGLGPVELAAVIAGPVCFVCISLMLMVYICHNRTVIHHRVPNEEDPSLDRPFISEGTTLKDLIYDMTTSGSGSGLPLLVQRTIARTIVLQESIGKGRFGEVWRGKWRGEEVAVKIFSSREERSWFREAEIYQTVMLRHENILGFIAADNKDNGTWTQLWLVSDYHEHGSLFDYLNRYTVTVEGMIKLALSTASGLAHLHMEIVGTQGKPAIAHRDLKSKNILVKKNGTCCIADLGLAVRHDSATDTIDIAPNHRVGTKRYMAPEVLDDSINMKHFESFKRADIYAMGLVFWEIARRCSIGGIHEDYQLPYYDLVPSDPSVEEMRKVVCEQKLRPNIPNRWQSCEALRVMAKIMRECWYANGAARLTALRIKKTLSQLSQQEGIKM
Procedure: ALK5 Kinase Assay for IC50 Determination:
IC50 values of compounds against TGFβ kinase was determined by LanthaScreen™ Terbium Labeled TR-FRET assay. Kinase assays were performed in IX kinase buffer (# PV6135, Invitrogen, Life Technologies Grand Island, N.Y.) where total reaction volume was 10 μL in low-volume 384-well plates (#4511,Corning). Serially diluted compounds (3-fold) were incubated with TGFβ kinase (6 nM) for 10 min, following which a mixture of ATP (10 μM) (# A1852, Sigma, St-Louis, Mo.) and fluorescent-PolyGT substrate (200 nM) (# PV3610, Invitrogen, Life Technologies Grand Island, N.Y.) was added and incubated in dark at room temperature for 1 h. After 1 h, 10 μL stop solution containing Terbium labeled antibody (4 nM) (# PV3529, Invitrogen, Life Technologies Grand Island, N.Y.) and EDTA (# E5134, Sigma, St-Louis, Mo.) (20 mM) in TR-FRET dilution buffer (# PV3574, Invitrogen, Life Technologies Grand Island, N.Y.) was added. Readings were taken in a Synergy Neo Plate reader (BioTek, Winooski) at single excitation of 340 nm and Dual emission at 495 nm and 520 nm respectively.
The % activity of test samples was calculated as (Sample−Min)×100/(Max−Min). [Max: DMSO control, complete reaction with enzyme with DMSO and Min: No enzyme with DMSO]. Percent inhibition (100-% activity) was fitted to the “four-parameter logistic model” in XLfit for determination of IC50 values.

Panc-1 = assay: Cell viability assay (resazurin, 96 hr) in Panc-1; assay type: cell-based; settings: Homo sapiens; Panc-1 pancreatic cell line, 96 hr exposure; read-out: Panc-1_Cell Viability_IC50
Procedure: (§1) Cell Viability Assay in MIA PaCa-2 and Panc-1
(§2) MIA PaCa-2 (ATCC® CRL-1420™) and Panc-1 (CRL-1469™), both pancreatic cell lines were seeded in their respective medium (DMEM, Cat #10569044 with 10% FBS, Cat #16000044; Gibco for Panc-1 and an additional 2.5% Horse Serum, Cat #16050122; Gibco for MIA PaCa-2) at a cell count of 3000 cells per 100 μl per well in a 96 well edge plate (167425; ThermoFisher). Cells were allowed to grow at 37° C. for 24 hr in 5% CO2 (culture conditions) in a Nuaire incubator (humidified). Serially diluted compounds (100 μl) were added to the culture plate 24 hr later and the cultures (MIA PaCa-2 and Panc-1) were further incubated in culture conditions for 96 hr. Experiment was terminated at the completion of 96 hr exposure to the drug by replacing the medium with 100 μl of 1 mM of resazurin (R7017; Sigma) prepared in culture medium and the plates were further incubated in culture conditions for 4 hr. Fluorescence was then measured using a multimodal plate reader (Biotek Synergy Neo) at an excitation wavelength of 535 nm and emission wavelength of 590 nm to obtain relative fluorescence units. Data analysis was done by subtracting the background fluorescence (only medium blank) value from each reading and then normalizing with the vehicle control (DMSO treated cells) to obtain percent survival/proliferation. Percent survival at different doses was used to calculate IC50 by fitting the curve to the “four-parameter variable slope logistic model” using Prism Graph Pad.

MIA PaCa-2 = assay: Cell viability assay (resazurin, 96 hr) in MIA PaCa-2; assay type: cell-based; settings: Homo sapiens; MIA PaCa-2 pancreatic cell line, 96 hr exposure; read-out: MiaPaCa-2_Cell Viability_IC50
Procedure: as §1, §2

COc1ccc(-c2ncc(C(C)C)c(Nc3ccnc4[nH]cc(C(=O)C(N)=O)c34)n2)cc1 [Compound No. 25, 2-(4-((5-isopropyl-2-(4-methoxyphenyl)pyrimidin-4-yl)amino)-1H-pyrrolo[2,3-b]pyridin-3-yl)-2-oxoacetamide hydrochloride]
IC50 (TGFBR1 (ALK5)): 2.57 µM | IC50 (Panc-1): > 30 µM | IC50 (MIA PaCa-2): > 30 µM

CCCCNC(=O)C(=O)c1c[nH]c2nccc(Nc3nc(-c4ccc(F)cc4)ncc3C(C)C)c12 [Compound No. 20, N-butyl-2-(4-(2-(4-fluorophenyl)-5-isopropylpyrimidin-4-ylamino)-1H-pyrrolo [2,3-b]pyridin-3-yl)-2-oxoacetamide hydrochloride]
IC50 (TGFBR1 (ALK5)): > 5 µM | IC50 (Panc-1): > 30 µM | IC50 (MIA PaCa-2): > 30 µM

CNC(=O)C(=O)c1c[nH]c2nccc(Nc3cc(-c4ccc(F)cc4)ncc3C(C)C)c12 [Compound No. 21, 2-(4-((2-(4-fluorophenyl)-5-isopropylpyridin-4-yl)amino)-1H-pyrrolo[2,3-b]pyridin-3-yl)-N-methyl-2-oxoacetamide hydrochloride]
IC50 (TGFBR1 (ALK5)): 0.574 µM | IC50 (Panc-1): 12.7 µM | IC50 (MIA PaCa-2): 10.7 µM

CC(C)c1cnc(-c2ccc(F)cc2)nc1Nc1ccnc2[nH]cc(C(=O)C(=O)N3CCN(C)CC3)c12 [Compound No. 24, 1-(4-(2-(4-fluorophenyl)-5-isopropylpyrimidin-4-ylamino)-1H-pyrrolo [2,3-b]pyridin-3-yl)-2-(4-methylpiperazin-1-yl) ethane-1,2-dione hydrochloride]
IC50 (TGFBR1 (ALK5)): 1.5 µM | IC50 (Panc-1): > 30 µM | IC50 (MIA PaCa-2): 0.77 µM

CC(C)c1cnc(-c2ccc(F)cc2)nc1Nc1ccnc2[nH]cc(C(=O)C(=O)N(C)C)c12 [Compound No. 16, 2-(4-((2-(4-fluorophenyl)-5-isopropylpyrimidin-4-yl)amino)-1H-pyrrolo[2,3-b]pyridin-3-yl)-N,N-dimethyl-2-oxoacetamide]
IC50 (TGFBR1 (ALK5)): 1.92 µM | IC50 (Panc-1): 17.1 µM | IC50 (MIA PaCa-2): 10.2 µM

CNC(=O)C(=O)c1c[nH]c2nccc(Nc3nc(-c4ccc(F)cc4)ncc3C(C)C)c12 [Compound No. 29, 2-(4-((2-(4-fluorophenyl)-5-isopropylpyrimidin-4-yl)amino)-1H-pyrrolo[2,3-b]pyridin-3-yl)-N-methyl-2-oxoacetamide hydrochloride]
IC50 (TGFBR1 (ALK5)): 2.77 µM | IC50 (Panc-1): 26 µM | IC50 (MIA PaCa-2): 23 µM

CC(C)c1cnc(-c2ccc(F)cc2)nc1Nc1ccnc2[nH]cc(C3(O)CCNCC3)c12 [Compound No. 13, 4-(4-((2-(4-fluorophenyl)-5-isopropylpyrimidin-4-yl)amino)-1H-pyrrolo[2,3-b]pyridin-3-yl)piperidin-4-ol hydrochloride]
IC50 (TGFBR1 (ALK5)): 0.108 µM | IC50 (Panc-1): 17.9 µM | IC50 (MIA PaCa-2): 10.9 µM

CC(C)c1cnc(-c2ccc(F)cc2)nc1Nc1ccnc2[nH]cc(N3CCOCC3C)c12 (stereo not drawn) [Compound No. 14, N-(2-(4-fluorophenyl)-5-isopropylpyrimidin-4-yl)-3-(3-methylmorpholino)-1H-pyrrolo [2,3-b] pyridin-4-amine hydrochloride]
IC50 (TGFBR1 (ALK5)): 3.71 µM | IC50 (Panc-1): 11.2 µM | IC50 (MIA PaCa-2): 11.1 µM

CC(C)c1cnc(-c2ccc(F)cc2)nc1Nc1ccnc2[nH]cc(C(=O)C(=O)N3CCOCC3)c12 [Compound No. 22, 1-(4-(2-(4-fluorophenyl)-5-isopropylpyrimidin-4-ylamino)-1H-pyrrolo [2,3-b]pyridin-3-yl)-2-morpholinoethane-1,2-dione hydrochloride]
IC50 (TGFBR1 (ALK5)): 3.95 µM | IC50 (Panc-1): 14.2 µM | IC50 (MIA PaCa-2): > 30 µM

CC(C)c1cnc(-c2ccc(F)cc2)nc1Nc1ccnc2[nH]cc(N3CCC(N)CC3)c12 [Compound No. 15, 3-(4-aminopiperidin-1-yl)-N-(2-(4-fluorophenyl)-5-isopropylpyrimidin-4-yl)-1H-pyrrolo[2,3-b]pyridin-4-amine hydrochloride]
IC50 (TGFBR1 (ALK5)): 0.245 µM | IC50 (Panc-1): 2.96 µM | IC50 (MIA PaCa-2): 5.5 µM
